In patent US20120238488A1, “COMPOUNDS AND METHODS FOR TREATING NEOPLASIA” (priority 2009, published 2012):

Columns and labels:
[1] = test system: T470 (Breast); assay: SRB assay, T470; assay type: cell-based, human; conditions: 48 h
Experimental: (§1) SRB assays were performed according to standard National Cancer Institute Guidelines. Briefly, human tumor cells from different cancer panels were seeded into 96 well plates in 100 μL (plating densities ranging from 5-40,000 cells/well depending on the doubling time of individual cell lines) in serum-containing media for twenty-four hours prior to the addition of the compounds to be assayed. After 24 hours, one plate of each cell line was fixed in situ with trichloroacetic acid (TCA). The fixed slides were used to determine the cell population for each cell line at the time of drug addition (Tz). Each compound to be tested was solubilized in DMSO and the desired concentration was then added to the medium and diluted serially 1:10 to provide a total of five or ten drug concentrations plus control (in a final volume of 200 μL). The starting dose before any dilution was 100 uM for all compounds.
(§2) Following drug addition, each culture was incubated for forty-eight hours. The assay was terminated with the addition of cold TCA. The supernatant was discarded, and the plates were washed with tap water and air dried. Sulforhodamine B (SRB) solution was then added to each well. After staining, the bound stain was solubilized and the absorbance was read on an automated plate reader at a wavelength of 515 nm.
(§3) Using the absorbance measurements [time zero, (Tz), control growth, (C), and test growth in the presence of drug at the ten concentration levels (Ti)], the percentage growth was calculated at each of the drug concentrations levels. Percentage growth inhibition was calculated as:
(§4) [(Ti−Tz)/(C−Tz)]×100 for concentrations for which Ti>/=Tz […]
(§5) Three dose response parameters were calculated for each experimental agent. […] The drug concentration resulting in total growth inhibition (TGI) was calculated from Ti=Tz. […]
(§6) Values were calculated for each of these three parameters when the level of activity was reached; however, if the effect was not reached or was exceeded, the value for that parameter was expressed as greater or less than the maximum or minimum concentration tested. […]

[2] = test system: membrane androgen receptor; assay: Membrane androgen receptor competition assay, LNCaP cells; assay type: binding; conditions: 40 μM compound 30 minutes before 40 μM testosterone-HSA-FITC, FIG. 3A
Experimental: After a 24 hour serum starvation period, cells were incubated with 40 μM testosterone-HSA-FITC for 1 hour at room temperature. […] Human serum albumin-FITC was used as a control for background staining. After permeabilization with ice-cold acetone for 4 minutes at room temperature, cell nuclei were stained with DAPI. Coverslips were mounted on slides by using the Slow Fade/Antifade Reagent (Molecular Probes) and studied under a LEICA DMLB microscope, equipped with the appropriate fluorescence filters and a Leica DC 300F camera. Specimens were analyzed using the Leica FW4000 computer program.
To determine the capacity of a given compound to preclude binding of fluorescent testosterone-HSA conjugates (TAC) to the membrane androgen receptor, starved LNCaP or DU145 cells on coverslips prepared as described above were pre-treated with 40 μM of the indicated compound for 30 minutes prior to the addition of testosterone-HSA-FITC. At the end of the incubation period, cells were washed twice with PBS and 40 μM of testosterone-HSA-FITC was added. Specimens were prepared and analyzed as described above.

[3] = test system: UAC032 (Melanoma); assay: SRB assay, UAC032; assay type: cell-based, human; conditions: 48 h
Experimental: as §1, §2, §3, §4, §5, §6

[4] = test system: PC-3 xenografts (prostate adenocarcinoma, grade IV); assay: PC-3 xenograft anti-tumor activity
Experimental: Compound 56 was tested for its anti-tumor activity in PC-3 and A549 xenografts. To generate xenografts in mice, exponentially growing cultures of approximately 10^6 PC-3 cells (prostate adenocarcinoma, grade IV) or A549 cells (lung carcinoma) were injected subcutaneously according to the British practice of bilateral trocar implants at the axillary region of 6-8 weeks old male (PC-3 cells) or female (A549 cells) Nod/Scid mice. The two tumor cell inoculums were added together for each mouse, thus producing a tumor burden per mouse value for data analysis. The advantage of the British system is reduced mouse-to-mouse variability and, thus, the ability to decrease the total number of animals per group, with five or six being sufficient for accurate data analysis of tumor response and evaluation of toxicities.
Tumor volume was calculated according to the formula [(axb2)/2], where a=length and b=width of the tumor as measured with a vernier's caliper (measurements were performed twice a week). All administrations were intraperitoneal. Treated animals received a single injection according to the schedule described for each study (see below). In addition to tumor volume, the parameter, % DT/DC, was calculated, where DT=T−Do and DC=C−Do (Do is the average tumor volume at the beginning of the treatment; T and C are the volumes of treated and untreated tumors, respectively, at a specified day). Optimal DT/DC value was used as a measure of drug activity. Losses of weight, neurological disorders and behavioral and dietary changes were also recorded as indicators of toxicity (side effects). The experiment was terminated when tumor size in untreated animals reached a volume of about 1000-1500 mm^3. All animals were treated according to Greek laws (2015/92), guidelines of the European Union and the European council (86/609 and ETS123, respectively), and Compliance with Standards for Human Care and Use of Laboratory Animals, NIH, USA (Assurance No. A5736-01).
In order to develop PC-3 xenografts, male mice 6-8 weeks old were inoculated bilateral at the two axilla regions at day 0.
Compound 56 was administered intraperitoneallly at the following dpis: d13, d14, d15, d16, d17, d20, d21, d22, d23, d24, d27, d28, 29, d30.

**Q.** `C[C@]12CCC(=NOCCN)C=C1CCC1C2CC[C@]2(C)C(=O)CCC12` (stereo partly drawn) [Compound 12, (10R,13S)-3-(2-aminoethoxyimino)-10,13-dimethyl-2,3,7,8,9,10,11,12,13,14,15,16-dodecahydro-1H-cyclopenta[a]phenanthren-17(6H)-one] was tested. Which CC50 ([1]; Homo sapiens, read-out: LC50) did it give?
**A.** The CC50 was 69.6 µM.

**Q.** What about the GI50 ([1]; Homo sapiens, T470, SRB) of the same compound?
**A.** The GI50 was 5.98 µM.

**Q.** And the TGI ([1]; T470, SRB)?
**A.** Its TGI is 26.42 µM.

**Q.** What about the “membrane fluorescence of TAC-FITC after pre-treatment (binding to mAR precluded)” value [2] of the same compound?
**A.** The value was “devoid of membrane fluorescence”.

**Q.** And the CC50 ([3]; Homo sapiens, read-out: LC50)?
**A.** The CC50 was 49.5 µM.

**Q.** What about the GI50 ([3]; Homo sapiens, UAC032, SRB) of the same compound?
**A.** Its GI50 is 4.57 µM.

**Q.** What about the TGI ([3]; UAC032, SRB) of the same compound?
**A.** The TGI was 7.64 µM.

**Q.** Which “post mortem analysis on excised PC-3 tumors: tumor growth inhibition” value ([4]; 17 mgk intraperitoneal) does the source give for `C[C@]12CCC(=NOC3CCNC3)CC1CCC1C2CC[C@]2(C)C(=O)CCC12` (stereo partly drawn) [Compound 56, (10S,13S)-10,13-dimethyl-3-(pyrrolidin-3-yloxyimino)tetradecahydro-1H-cyclopenta[a]phenanthren-17(2H)-one] here?
**A.** The value was “statistical significant tumor growth inhibition”.

**Q.** And the “toxicity (body weight, deaths)” value ([4]; PC-3 xenograft mice, compound 56 17 mgk, digoxin 2 mgk, intraperitoneal)?
**A.** The value was “not toxic”.

**Q.** What about the “metastases versus control group (post mortem)” value ([4]; PC-3 xenografts, 17 mgk intraperitoneal) of the same compound?
**A.** Its value is “suppression of bone lymph node and front axilla metastases”.

**Q.** What about the “optimal DT/DC” value ([4]; PC-3 xenografts, 17 mgk intraperitoneal, day 34, p=6×10^−6) of the same compound?
**A.** Its value is 48.71%.

**Q.** What about the “anti-tumor activity in PC-3 xenografts (FIG. 2A)” value ([4]; mouse, in vivo) of the same compound?
**A.** The value was “has anti-tumor activities”.
